Source: article PMC3720801, “A Proline-Hinge Alters the Characteristics of the Amphipathic α-helical AMPs” (PLoS ONE, 2013)
Values after ≈ are worked out from the molar mass of the structure shown. Peptide text beside a SMILES is read from it.

Assays:
[1] = tested on: Trichosporon beigelii (KCTC 7707); assay: Antifungal MTT assay MIC; type: cell-based; settings: YPD pH 5.5, 24 h at 28°C, absorbance 570 nm, triplicate
[2] = tested on: Bacillus subtilis (KCTC 1918); settings: broth microdilution, 1% bactopeptone, 5×10^3 CFU/ml, 10 h at 37°C, OD 620 nm, triplicate
[3] = tested on: Staphylococcus epidermidis (KCTC 1917); settings: broth microdilution, 1% bactopeptone, 5×10^3 CFU/ml, 10 h at 37°C, OD 620 nm, triplicate
S. aureus (KCTC 1621) = settings: broth microdilution, 1% bactopeptone, 5×10^3 CFU/ml, 10 h at 37°C, OD 620 nm, triplicate
[4] = tested on: Escherichia coli (KCTC 1682); settings: broth microdilution, 1% bactopeptone, 5×10^3 CFU/ml, 10 h at 37°C, OD 620 nm, triplicate
[5] = tested on: Proteus vulgaris (KCTC 2433); settings: broth microdilution, 1% bactopeptone, 5×10^3 CFU/ml, 10 h at 37°C, OD 620 nm, triplicate
[6] = tested on: Salmonella typhimurium (KCTC 1926); settings: broth microdilution, 1% bactopeptone, 5×10^3 CFU/ml, 10 h at 37°C, OD 620 nm, triplicate
[7] = tested on: Pseudomonas aeruginosa (KCTC 1637); settings: broth microdilution, 1% bactopeptone, 5×10^3 CFU/ml, 10 h at 37°C, OD 620 nm, triplicate
[8] = tested on: Candida albicans (KCTC 7270); settings: MTT assay, YPD pH 5.5, 24 h at 28°C, absorbance 570 nm, triplicate
[9] = tested on: Saccharomyces cerevisiae (KCTC 7296); settings: MTT assay, YPD pH 5.5, 24 h at 28°C, absorbance 570 nm, triplicate
T. begellii = assay: Confocal laser-scanning microscopy, localization of FITC-conjugated peptides; type: cell-based; settings: 15 min at 28°C
[10] = In vitro binding assay to insoluble polysaccharide; settings: 100 µg polysaccharide + 5 µg peptide, room temperature 1 h, SDS-PAGE
Experimental: Chitin (β-1,4-N-acetyl-D-glucosamine), chitosan (β-1,4-D-glucosamine), cellulose (β-1,4-glucan), curdlan (β-1,3-glucan) and peptidoglycan (β-1,4-glycosidic linkage between N-acetyl muramic and N-acetylglucosamine) were used for the in vitro binding assay of Anal 3-Pro. One hundred µg of each insoluble polysaccharide was added in 5 µg of purified Anal 3-Pro and incubated at room temperature with mild agitation for 1 h. The mixture was centrifuged (10,000×g for 2 min) and the pellet was washed three times with 1 ml of washing buffer (10 mM Tris, pH 7.5, 500 mM NaCl, 0.02% Tween 20). The peptide bound to insoluble polysaccaharide was detached by adding SDS-polyacrylamide gel electrophoresis sample buffer.

[11] = tested on: plasmid DNA (pBluescript SK(+)); assay: DNA gel retardation; type: binding; settings: plasmid DNA 100 ng, 10 min at 37°C, agarose gel
[12] = FITC-dextran leakage from liposomes; settings: 10 µM peptide, peptide/lipid 1/10, 25°C, FITC fluorescence
Experimental: FITC-labeled dextrans (FD-4, 10, 20, 40, 70 and 500) were utilized as model cytoplasmic components. FD (fluorescein isothiocyanate dextrans), with average molecular masses of 4, 10, 20, 40, 70, and 500 kDa were all purchased from the Sigma Chemical Co. (St. Louis, MO). FD-entrapping liposomes (unilamellar vesicles) with different lipid compositions were prepared using the reverse-phase evaporation method, after which the concentrations of the FD-entrapping vesicles were determined in triplicate using a phosphorus assay. To prepare FD-entrapping liposomes, a buffer solution (buffer II: PBS) containing 2 mg/ml of the FD was sonicated for 30 min with a lipid solution in chloroform (20 mg/ml) on ice. The chloroform was then gradually removed using a rotary vacuum evaporator at 25°C, resulting first in the formation of a viscous gel and then a liposome suspension. Buffer (2 ml) was added, and the suspension was evaporated further to remove the remaining solvent. The liposome suspensions were then centrifuged and washed for several cycles at 22,000×gav for 30 min in order to remove unentrapped-FD. The washed liposomes were extruded 30 times through polycarbonate filters (two stacked 0.4-µm pore size filters) using an Avanti Mini-Extruder (Avanti Polar Lipids inc., Alabaster, AL) to obtain liposomes of homogeneous size (∼400 nm). Aliquots of the peptide solutions at appropriate concentrations were incubated with a suspension of FD-loaded liposomes (100 µM) for 1–20 min at 25°C, and were then centrifuged for 30 min at 22,000×g. The supernatants were recovered and the leakage was recorded by monitoring the FITC fluorescence intensity (excitation wavelength: 494 nm, emission wavelength: 520 nm). 100% leakage was achieved by addition of Triton X-100 to a final concentration of 1 mM. The percent leakage value was then plotted.

C. albicans cells = assay: Flow cytometric analysis of cell membrane permeability (PI uptake); type: cell-based, Candida albicans; settings: 30 min on ice, 12.5 µM Anal 3 or melittin, peptides at MIC
Experimental: Membrane integrity following peptide treatment was evaluated using flow cytometry. Anal 3, Anal 3-Pro or melittin (control) was added to C. albicans cells (2×10^5 cells in YPD media) to the MIC, after which cell membrane permeabilization was detected by incubating the treated cells in 50 µg/ml propidium iodide (PI) for 30 min at 4°C. After removing the unbound dye by extensively washing with PBS, the cells were subjected to flow cytometric analysis using a FACScalibur flow cytometer (Becton Dickinson, San Jose, CA). PI fluorescence was monitored in the FL2-H channel.

Row | Compound | MIC Yeast TB [1] [µM] | MIC G(+) BS [2] [µM] | MIC G(+) SE [3] [µM] | MIC G(+) SA (S. aureus (KCTC 1621)) [µM] | MIC G(−) EC [4] [µM] | MIC G(−) PV [5] [µM] | MIC G(−) ST [6] [µM] | MIC G(−) PA [7] [µM] | MIC Yeast CA [8] [µM] | MIC Yeast SC [9] [µM] | intracellular localization of FITC-conjugated peptide (T. begellii) | binding to chitin [10] | amount of peptide at which retardation of the pDNA band was detected [11] [µg] | release of FD4 from PC/CH liposomes [12] [%] | release of FD4 from PE/PG liposomes [12] [%] | release of larger FD markers from PC/CH vesicles [12] | release of larger FD markers from PE/PG liposomes [12] | PI influx (membrane permeabilization), in words (C. albicans cells)
1 | CC[C@H](C)[C@H](NC(=O)[C@H](CCCCN)NC(=O)[C@H](CO)NC(=O)[C@H](Cc1ccccc1)NC(=O)[C@H](CC(C)C)NC(=O)[C@H](CCCCN)NC(=O)[C@H](CCC(=O)O)NC(=O)[C@H](CC(C)C)NC(=O)[C@H](CCCNC(=N)N)NC(=O)[C@H](CCCCN)NC(=O)[C@H](CO)NC(=O)[C@@H](NC(=O)[C@H](CCCCN)NC(=O)[C@H](CCCCN)NC(=O)[C@H](C)N)C(C)C)C(=O)N[C@@H](CCC(N)=O)C(=O)N[C@@H](CC(N)=O)C(=O)N[C@@H](CC(=O)O)C(=O)N[C@@H](CCCCN)C(N)=O [Anal 5] (H-AKKVSKRLEKLFSKIQNDK-NH2) | 50 (≈ 113 µg/mL) | 3.13 (≈ 7.07 µg/mL) | 6.25 (≈ 14.1 µg/mL) | >12.5 | 6.25 (≈ 14.1 µg/mL) | 3.13 (≈ 7.07 µg/mL) | 3.13 (≈ 7.07 µg/mL) | >12.5 | 100 (≈ 226 µg/mL) | 50 to 100 |  |  |  |  |  |  |  | 
2 | CC[C@H](C)[C@H](NC(=O)[C@H](CCCCN)NC(=O)[C@H](CO)NC(=O)[C@H](Cc1ccccc1)NC(=O)[C@H](CC(C)C)NC(=O)[C@H](CCCCN)NC(=O)[C@H](CCC(=O)O)NC(=O)[C@H](CC(C)C)NC(=O)[C@H](CCCNC(=N)N)NC(=O)[C@H](CCCCN)NC(=O)[C@H](Cc1ccccc1)NC(=O)[C@@H](NC(=O)[C@H](CCCCN)NC(=O)[C@H](CCCCN)NC(=O)[C@H](C)N)C(C)C)C(=O)N[C@@H](CCC(N)=O)C(=O)N[C@@H](CC(N)=O)C(=O)N[C@@H](CC(=O)O)C(=O)N[C@@H](CCCCN)C(N)=O [HP (2–20), reference compound] (H-AKKVFKRLEKLFSKIQNDK-NH2) | 12.5 to 25 | 1.56 (≈ 3.62 µg/mL) | 3.13 (≈ 7.26 µg/mL) | 12.5 (≈ 29 µg/mL) | 6.25 (≈ 14.5 µg/mL) | 3.13 (≈ 7.26 µg/mL) | 0.78 (≈ 1.81 µg/mL) | 12.5 (≈ 29 µg/mL) | 25 (≈ 58 µg/mL) | 25 (≈ 58 µg/mL) |  |  |  |  |  |  |  | 
3 | buforin II |  |  |  |  |  |  |  |  |  |  | distributed throughout the fungal cells | recognized only chitin | 1 | 3.6 | 5 | unable to release any of the larger markers | unable to release any of the larger markers | 
4 | melittin: antimicrobial peptide known to target the cell membrane |  |  |  |  |  |  |  |  |  |  |  |  |  |  |  |  |  | large influx of PI
